Results taken from patent US7666677B2, “Production of stilbenes in plant hairy root cultures” (priority 2006, dated 2010).
“And” between values parts separate entries of the source, which are not always exact repeats. Equal entries are not always repeated.

What was measured:
[1] = tested on: hairy root cultures of peanut cv. Andru II; assay: Elicitation of peanut hairy root cultures, TLC/HPTLC of ethyl acetate extracts of the medium; type: cell-based, Arachis hypogaea; conditions: for fluorescent compounds induced in culture medium (TLC, UV 365 nm): all cv. Andru II hairy root lines tested, 12-day cultures, 600 μM copper sulfate or 10.2 mM sodium acetate; for fluorescent compounds induced in culture medium (TLC, UV 365 nm) / fluorescent products induced in culture medium (TLC): 24 hours; for fluorescent products induced in culture medium (TLC): line 2, 12-day culture, sodium acetate 10.2 mM, chitosan 10 mg/L, copper sulfate 600 μM, laminarin 1 mg/ml, cellulase 1 or 10 μg/ml; for color change of the root tissue and medium: lines 2, 3, 5 and 6 of cv. Andru II, elicitors applied 24 hours
Protocol: Establishment of hairy root cultures. Seeds of peanuts (Arachis hypogaea) cvs. Andru II and Hull (kindly provided by Dr. Daniel Gorbet, University of Florida) were surface sterilized as follows. Seeds were presoaked for 2 minutes in sterile water containing 0.003% Ivory™ detergent; immersed for 15 minutes in sterilization solution (50% Clorox™, 0.003% Ivory™ detergent) and rinsed in sterile water. To minimize Chlorox™ damage to the embryo, the test was aseptically removed and seeds were further rinsed in two changes of sterile water over a 15 minute period. Disinfected seeds were placed individually on plates containing B5 medium to allow emergence of the radicle and to screen for viable healthy seedlings. Germinated seedlings were transferred to Magenta™ boxes containing B5 medium and allowed to grow in continuous light at 28° C. for 15 to 21 days. Explants used for hairy root production were harvested following expansion of two true leaves.
Cotyledon, hypocotyl, leaf blade, stem and petiole explants were evaluated. Whole, intact plantlets were also tested. […] Intact seedlings and isolated explants were then evaluated for response to Agrobacterium infection. Three strains of Agrobacterium were tested: A. rhizogenes ATCC 15834, A. rhizogenes R1000 and A. tumefaciens EHA105 containing pRYG (containing rolA, rolB and rolC genes, Komarnytsky et al., 2004) plasmid. The latter plasmid was kindly provided by Dr. Ilya Raskin (Rutgers University, New Jersey) and mobilized into A. tumefaciens by freeze-thaw method (Holsters et al., 1978). Intact seedlings were inoculated with agrobacteria at the stem, petiole, or cotyledonary node. All other isolated explants were inoculated via epidermal incisions as described before (Medina-Bolivar et al., 2003; Medina-Bolivar and Cramer, 2004). Inoculated intact seedlings and explants were maintained in B5 medium plates under constant light at 28° C. Hairy roots developed at the inoculation site were harvested and transferred to B5 medium plates containing 600 mg/l cefotaxime, and maintained at 28° C. under continuous darkness. Roots were subcultured twice in this medium prior to transfer to antibiotic-free medium. Liquid hairy root cultures were established by inoculating ten 1-cm root tips into 250 ml flasks containing 50 ml of B5 medium. Roots were subcultured every 2 weeks and maintained on an orbital shaker at 90 rpm, 28° C. and continuous darkness.
(§1) Elicitation of hairy root cultures. […] All elicitors were dissolved in water and filter sterilized, except for chitosan which was dissolved in 1 M acetic acid. Following elicitation, all media was collected and frozen at −20° C. All root tissue was collected, fresh weight recorded and roots then rapidly frozen in liquid nitrogen prior to storage at −80° C. Controls included hairy root cultures incubated 24 hours with equivalent volumes of water or acetic acid as well as non-elicited media samples collected from the 12-day hairy root cultures prior to initiating the elicitation procedure. […] Media and root tissue were collected, processed and stored as outlined above.
(§2) Extraction of resveratrol from culture medium. Media samples were thawed (50 ml) and partitioned with 30 ml ethyl acetate in a separatory funnel. The organic phase was recovered and dried to completeness under nitrogen stream using a RapidVap N2 evaporation system (Labconco) at 40° C. and 40% rotor speed. These dried samples were resuspended in 50 μl of ethyl acetate for further analysis.
Qualitative TLC analysis. Aliquots of the extracts and pure, authentic standards of trans-resveratrol (Sigma Co, St. Louis, Mo.), polydatin—same chemical as piceid—(ChromaDex, Santa Ana, Calif.), pterostilbene (Sigma) and piceatannol (Sigma) were spotted on a 20×20 cm silica gel 60 CF254 TLC plates (Merck) or a 10×10 silica gel 60 CF254 HPTLC plates (Merck).

[2] = Solubility of resveratrol in organic solvents; type: physicochemical
Source text: Qualitative analyses of elicited peanut hairy root cultures. In an effort to rapidly assess the various hairy root lines for resveratrol production and secretion into the culture medium, we adapted a thin layer chromatographic method (TLC) that leverages the fluorescent nature of resveratrol at defined excitation wavelengths (Nepote et al., 2004). In a preliminary experiment, the culture medium was lyophilized to completeness and the dried medium was resuspended in methanol. This extract produced a very viscous solution which was difficult to resolve by TLC. In addition, the high content of carbohydrates in this sample appeared to bind the phenolic compounds (i.e. resveratrol). In an effort to overcome these issues, we optimized the purification of resveratrol in the culture medium by determining the solubility of resveratrol in various organic solvents. […] Initial analyses of the ethyl acetate extracts of hairy root media were compared by TLC to pure authentic references standards of trans-resveratrol and piceid. […] Andru II hairy root lines tested. The strongest fluorescent chemical was detected in the medium of sodium acetate-elicited hairy roots and generated an Rf of 0.83 corresponding to that of authentic trans-resveratrol. […]

[3] = tested on: hairy roots of muscadine grape; conditions: 10.2 mM sodium acetate, 24 hours, medium extract
Protocol: PCR analyses of hairy roots of muscadine grape (Vitis rotundifolia) cvs. Roots were analyzed for the presence of rol C and aux 2 genes. Hairy roots were cultured in B5 medium. […] Analysis was done under UV light (365 nm).

[4] = tested on: hairy root cultures of N. benthamiana
Source text: Seeds of Nicotiana benthamiana were surface sterilized and germinated on MS semi-solid medium. Axillary nodes were harvested from the axenic seedlings and used to establish plantlets. The latter were then micropropagated in MS medium and leaves from these plantlets were used as explants for Agrobacterium rhizogenes inoculations. Leaves were harvested from 2-3 week old plantlets and placed on B5 medium. The leaves were inoculated in the midrib with A. rhizogenes ATCC 15834. Two to 3 weeks after inoculation hairy roots initiated at the inoculation site. The roots were then transferred to B5 medium with cefotaxime to eliminate agrobacteria. After several subcultures in this medium, the roots were transferred to antibiotic-free B5 medium. Confirmation of transformation with A. rhizogenes was done by PCR. […]
To test for elicitation of stilbenes (pinosylvin, resveratrol and their derivatives), hairy root cultures of N. benthamiana lines 3NB, 4NB, 5NB and 6NB were grown for either 2 or 3 weeks as described above. […] Stilbenes were detected with a coupled diode away and fluorescence (excitation 330 nm; emission 374 nm) detector.
Further analyses were conducted by reverse phase HPLC. […] Stilbenes were detected with coupled diode array and fluorescence (excitation 330 nm; emission 374 nm) detectors. […] These compounds were further analyzed by HPLC-ESI-mass spectrometry.

[5] = tested on: hairy root cultures of peanut, line 2
Protocol: as §1, §2
Quantitative analysis of resveratrol and pterostilbene by GC-MS. Dried medium or root tissue extracts (0.1 mg) were derivatized with 500 μL of a mixture of bis (trimethylsilyl)trifluoroacetamide:dimethyl formamide (1:1), heated at 70° C. for 40 min. After cooling to room temperature, samples were analyzed by gas chromatography/mass spectrometry (GC-MS) on a JEOL GCMate II system (JEOL USA, Inc., USA). […] The GC capillary column used was DB-5 (0.25 mm i.d., 0.25 […], 30 m length; Agilent Technologies, USA). The carrier gas was ultra high purity helium (nexAir, USA), 1 mL/min flow rate. The inlet (splitless), GC interface, and ion chamber temperatures were 250° C., 250° C., and 230° C., respectively. The injection volume was 2 μL.
Quantitative analysis of resveratrol and pterostilbene by GC-MS. […] Cis- and trans-resveratrol were monitored for m/z 444 (and 429, 207, 147 as qualifier ions). Cis- and trans-pterostilbene were monitored for m/z 328 (and 313, 296, 156 as qualifier ions). Quantitation was performed using external standards of a commercial sample of trans-resveratrol (Sigma) and a synthetic sample of trans-pterostilbene (synthesized from methylation of resveratrol). The cis isomers were obtained by UV-irradiation (λ 306 nm) of an ethanolic solution the trans isomers (1 mg/mL) for 24 hours.
Laboratory recovery of stilbenes. […] Therefore we have calculated resveratrol recoveries based on the dry weight (DW) of the ethyl acetate extract of the culture media.

[6] = tested on: peanut hairy roots derived from the Hull cultivar; conditions: 10.2 mM sodium acetate, 24 hours, medium extract
Protocol: Using the materials and methods outlined above, resveratrol and resveratrol derivatives were elicited in the peanut hairy roots derived from the Hull cultivar. […] Control roots were not elicited. Elicited hairy root of peanut cv. Andru II (line pRYG-J) and cv. Hull s were cultured in B5 medium. […] Analysis was done under UV light (254 and 365 nm).

[7] = line 2, 15-day culture, 48 hours after elicitation

In the case of `O=S(=O)([O-])[O-].[Cu+2]` [copper sulfate], the “fluorescent compounds induced in culture medium (TLC, UV 365 nm)” value [1] is reported as “induced production of blue fluorescent compounds”, the “fluorescent products induced in culture medium (TLC)” value (shortened to “fluorescent products induced”) [1] is reported as “induced a fluorescent chemical of Rf 0.73” and the “color change of the root tissue and medium” value [1] is reported as “induced the browning on the tissue and of the medium”.

In the case of `Oc1ccc(/C=C/c2cc(O)cc(O)c2)cc1` [resveratrol, trans-3,4′,5-trihydroxystilbene], the “solubility of resveratrol in ethyl acetate” value [2] is reported as “good solubility”.

With `CC(=O)[O-].[Na+]` [sodium acetate] the “elicitation of resveratrol and derivatives (HPTLC)” value [3] was “achieved”, the “induced compound by reverse phase HPLC” value ([4]; 24 and 48 hours after elicitation) was “induced production of a major fluorescence compound” and the “production and secretion of stilbene-like fluorescent compounds (HPTLC)” value ([4]; lines 3NB, 4NB, 5NB, 6NB, 10.2 mM sodium acetate, 24 or 48 hours) was “induced production and secretion of compounds with fluorescent characteristics of stilbene compounds”. For the same molecule, the “increase of resveratrol above non-elicited culture extracts” value ([5]; culture medium extracts) was ~60 fold, the “cis-resveratrol levels in elicited cultures, root tissue (average)” value ([5]; elicited cultures) was 10 ng/mg root tissue extract and the “trans-resveratrol remaining in the root tissue” value ([5]; elicited cultures) was 0.2-1.1 μg/mg extract DW. The “trans-Resveratrol, Medium” value ([5]; elicited cultures, ethyl acetate extract of medium, mean of two determinations) was 97992 ng per mg extract and 85282 ng per mg extract and 50339 ng per mg extract, the “cis-Resveratrol, Root tissue” value ([5]; elicited cultures, extract of root tissue, mean of two determinations) was 10 ng per mg extract and the “production rate of trans-resveratrol per gram DW of root tissue” value ([5]; estimating 6 mg medium ethyl acetate extract per gram root tissue DW) was 300 to 588 µg. For the same molecule, the “share of total trans-resveratrol secreted into the culture medium” value ([5]; sodium acetate elicitation) was “approximately 99%”, the “fluorescent compounds induced in culture medium (TLC, UV 365 nm)” value [1] was “induced production of blue fluorescent compounds” and the “fluorescent products induced” value [1] was “induced two products”. For the same molecule, the “presence of resveratrol in culture medium, time course” value [1, 7] was “decreased”, the “pterostilbene levels in culture medium, time course” value [1, 7] was “increased” and the “trans-resveratrol and pterostilbene levels in culture medium, time course” value ([1]; line 2, 15-day culture, 72 hours post elicitation) was “decreased”. The “sodium acetate concentration with the most effective response (dose response, HPTLC)” value ([1]; line 2, 24 hours, 0 to 51 mM tested) was “about 10 mM”, the “color change of the root tissue and medium” value [1] was “did not affect the color of the roots” and the “production of resveratrol and derivatives (HPTLC)” value [6] was “induced the production of resveratrol and derivatives”.

In the case of cellulase, the “fluorescent products induced” value [1] is reported as “no fluorescent chemicals were detected”.

In the case of chitosan, the “fluorescent products induced” value [1] is reported as “induced the two products as observed for sodium acetate elicitation”.

With laminarin the “fluorescent products induced” value [1] was “induced production of a blue fluorescent chemical with an Rf 0.78”.
